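Five compound concentrations were applied to cells in 96-well plates for 48 hours; endpoints were derived by simple linear interpolation of the resulting dose-response curve. Abbreviation: GI50, concentration required for 50% inhibition of growth.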 Activity calls are given as the source filed them. Rule as the data show it: active = GI50 up to about 1.1 µM and inactive = higher.
Tests used:
Experiment in all cases: DTP human tumour cell line panel, 48 h
786-0 = tested on: 786-0
COLO 205 = tested on: COLO 205
DMS-114 = tested on: DMS-114
HCT-116 = tested on: HCT-116
HT-29 = tested on: HT-29
LOX IMVI = tested on: LOX IMVI
MCF7 = tested on: MCF7
Malme-3M = tested on: Malme-3M
NCI-H522 = tested on: NCI-H522
OVCAR-5 = tested on: OVCAR-5
OVCAR-8 = tested on: OVCAR-8
PC-3 = tested on: PC-3
RPMI-8226 = tested on: RPMI-8226
SF-295 = tested on: SF-295
SF-539 = tested on: SF-539
SK-MEL-28 = tested on: SK-MEL-28
SNB-78 = tested on: SNB-78
UACC-257 = tested on: UACC-257
UO-31 = tested on: UO-31

| SMILES | GI50 (786-0) | GI50 (COLO 205) | GI50 (DMS-114) | GI50 (HCT-116) | GI50 (HT-29) | GI50 (LOX IMVI) | GI50 (MCF7) | GI50 (Malme-3M) | GI50 (NCI-H522) | GI50 (OVCAR-5) | GI50 (OVCAR-8) | GI50 (PC-3) | GI50 (RPMI-8226) | GI50 (SF-295) | GI50 (SF-539) | GI50 (SK-MEL-28) | GI50 (SNB-78) | GI50 (UACC-257) | GI50 (UO-31) |
| --- | --- | --- | --- | --- | --- | --- | --- | --- | --- | --- | --- | --- | --- | --- | --- | --- | --- | --- | --- |
| CN1CC[C@@H](c2c(O)cc(O)c3c(=O)cc(-c4ccccc4Cl)oc23)[C@@H](O)C1 | 0.0414 µM (active) | 0.034 µM (active) | 0.113 µM (active) | 0.02 µM (active) | 0.0942 µM (active) | 0.0191 µM (active) | 23.9 nM (active) | 0.124 µM (active) | 0.0655 µM (active) | 0.0384 µM (active) | 0.0401 µM (active) | 38.5 nM (active) | 0.0326 µM (active) | 0.0604 µM (active) | 0.0343 µM (active) | 0.0455 µM (active) | 0.213 µM (active) | 0.0552 µM (active) | 0.0266 µM (active) |
| NC(=O)CCC(NC(=O)C(F)(F)F)C(=O)O (stereo unspecified) | > 100 µM (inactive) | > 100 µM (inactive) | > 100 µM (inactive) | > 100 µM (inactive) | > 100 µM (inactive) | > 100 µM (inactive) |  | > 100 µM (inactive) | > 100 µM (inactive) | > 100 µM (inactive) | > 100 µM (inactive) |  | > 100 µM (inactive) | > 100 µM (inactive) | > 100 µM (inactive) | > 100 µM (inactive) | > 100 µM (inactive) | > 100 µM (inactive) | > 100 µM (inactive) |

Source: ChEMBL document CHEMBL1201862, “PubChem BioAssay data set” (2004)
